Source: patent publication US9493419B2, “Quinoline derivatives as anti-cancer agents” (The Hong Kong Polytechnic University, priority 2007, dated 2016)
In brackets after ≈: the same amount, converted by molar mass.

Columns and labels:
[1] = tested on: Human liver cancer cell line Hep3B; assay: Preliminary anti-cancer screening, One Step ATP lite assay; type: cell-based; set-up: key to Relative activity to untreated control: “+” (more cell death); “−” (no cytotoxicity); conditions: 48 hours; for Relative activity to untreated control: Hep3B, 50 ug/ml
Description: Human liver cancer cell line Hep3B was used for purpose of preliminary anti-cancer screening for the selected alkaloids. Cancer cells (1×10^4 per well) seeded in the 96 wells microtitre plates for 24 hours were prepared for the alkaloid screening. The selected compounds were prepared as a stock concentration of 50 mg/ml in dimethylsulfoxide (DMSO) and were added at a concentration of 50 μg/ml and incubated for a further of 48 hours. Untreated control received either total complete medium or 0.1% of DMSO. Cisplatin (CDDP, also at 50 μg/ml) was the positive reference which induced more than 95% in Hep3B. Afterwards, the evaluation of possible antiproliferative or cytotoxicity of those alkaloids was examined by the One Step ATP lite assay purchased from PerkinElmer according to the technical manual provided. […] The relative MTS activities were compared with the untreated control and illustrated using symbols “+” (more cell death) and “−” (no cytotoxicity).

Hep3B = assay: MTS activity assay, Hep3B; type: cell-based, human; conditions: for viability at 50 µg/mL: Homo sapiens, Hep3B, read-out: Relative MTS Activity at 50 μg/mL Concentration, Hep3B
Excerpt: (§1) All the assays were done in triplicates.

[2] = tested on: Lung carcinoma cell line (A549); assay: MTS activity assay, A549; type: cell-based; conditions: 48 hours, relative to control; for viability at 50 µg/mL: Homo sapiens, A549, 50 μg/mL, read-out: Relative MTS Activity at 50 μg/mL Concentration, A549
Excerpt: as §1

[3] = tested on: Esophageal squamous cell carcinoma cell line KYSE150; assay: MTS activity assay, KYSE150; type: cell-based, human; conditions: for Relative MTS Activity at 50 μg/mL Concentration, KYSE150: 48 hours, relative to control
Excerpt: as §1

[4] = tested on: Esophageal squamous cell carcinoma cell line HKESC-1; assay: MTS activity assay, HKESC-1; type: cell-based; conditions: for Relative MTS Activity at 50 μg/mL Concentration, HKESC-1: 48 hours, relative to control
Excerpt: as §1

ESCC cell line HKESC-4 = assay: MTS activity assay, HKESC-4; type: cell-based; conditions: for Relative MTS Activity at 50 μg/mL Concentration, HKESC-4: 48 hours, relative to control
Excerpt: as §1

[5] = tested on: five carcinoma cell lines (Hep3B, A549, HKESC-1, HKESC-4 and KYSE150); assay: cells; conditions: read-out: MTS50 (50% of MTS reduction ability by the chemical treated cell as compared with control), against the cancer cell lines, FIG. 1
Description: (§3) Lung carcinoma cell line (A549) and hepatocellular carcinoma (HCC) cell line (Hep3B) were obtained from American Type of Culture Collection (ATCC). Esophageal squamous cell carcinoma cell line KYSE150 was purchased from DSMZ (Braunschweig, Germany) [13]. […] Hep3B HCC and A549 lung carcinoma cell lines were maintained in DMEM and F12-K medium respectively with 10% of heat inactivated fetal bovine serum (Hyclone) together with antibiotics involving penicillin and streptomycin. All the ESCC cell lines (KYSE150, HKESC-1 and HKESC-4) were maintained in MEM supplemented with 10% of heat inactivated fetal bovine serum together with antibiotics involving penicillin and streptomycin. Cells were allowed to grow in a humidified cell culture incubator keeping at 5% carbon dioxide.
(§4) Briefly, 1×10^4 carcinoma cells were seeded at day 0. After 24 hours, medium was changed and various compounds were added at different concentrations. Cisplatin (CDDP), a commonly used anti-cancer agent, was also used as the positive control. After 48 hours of incubation, the medium was removed and MTS/PMS solution was added and they were incubated further for exactly 30 minutes. Afterwards, optical absorbance was determined at 490 nm according to the user manual (Promega). All the assays were done in triplicates.

[6] = tested on: five carcinoma cell lines (Hep3B, A549, HKESC-1, HKESC-4 and KYSE150); conditions: against the cancer cell lines, FIG. 1
Description: as §3, §4

KYSE150 xenograft tumors = assay: Subcutaneous KYSE150 xenograft tumors in nude mice; type: in vivo; conditions: 10 mg/kg/day i.p. for 19 days, compared with negative control (6% PEG), FIG. 2
Description: Optically pure compound (−)-2b (ee up 99%) was tested for their anti-cancer effects against the subcutaneous xenograft tumors of human esophageal cancer derived from the cell line KYSE150, which was purchased from DSMZ (Braunschweig, Germany) and was cultured in a known way as previously described (for details see reference number 17).
(§2) Each group of three mice received intra-peritoneal (i.p.) injection daily with 10 mg/kg of optically pure isomers with 6% polyethylene glycol (PEG Mn 8000) for 19 days. The control group of two mice was injected daily with 6% PEG only. Tumor dimensions were measured regularly with calipers, and tumor volumes were estimated using two-dimensional measurements of length and width and calculated with the formula [l×(w)^2]×0.52 (l is length and w is width) as previously described.

[7] = Histological examination of organs of treated mice; type: in vivo; conditions: mice after sacrifice; 10 mg/kg i.p. daily for 19 days
Description: as §2

[8] = 50 μg/mL, 48 hours, relative to control

CC(=O)Oc1cccc2c1NC(C)CC2 (stereo not drawn) [Compound 25b, 2-Methyl-1,2,3,4-tetrahydroquinolin-8-yl acetate]
Relative activity to untreated control [1]: +

CC1CCc2cccc(OCc3ccc(C(F)(F)F)cc3)c2N1 (stereo not drawn) [Compound 17b, 8-(4-(Trifluoromethyl)benzyloxy)-1,2,3,4-tetrahydro-2-methylquinoline]
viability at 50 µg/mL (Hep3B; [8]): 73.4 ± 2.4% | viability at 50 µg/mL [2]: 98.3 ± 0.1%

Cc1ccc2cccc(OCc3ccc(C(F)(F)F)cc3)c2n1 [Compound 17a, 8-(4-(trifluoromethyl)benzyloxy)-2-methylquinoline]
viability at 50 µg/mL (Hep3B; [8]): 87.8 ± 7.3% | viability at 50 µg/mL [2]: 92 ± 4.2%

COc1ccc(COc2cccc3ccc(C)nc23)cc1 [Compound 11a, 8-(4-methoxybenzyloxy)-2-methylquinoline]
Relative MTS Activity at 50 μg/mL Concentration, KYSE150 [3]: 0.797 ± 0.083 | Relative MTS Activity at 50 μg/mL Concentration, HKESC-1 [4]: 0.817 ± 0.076 | viability at 50 µg/mL (Hep3B; [8]): 32 ± 1.7% | viability at 50 µg/mL [2]: 52.7 ± 1.8% | Relative MTS Activity at 50 μg/mL Concentration, HKESC-4 (ESCC cell line HKESC-4): 0.488 ± 0.017

COc1cccc(COc2cccc3c2NC(C)CC3)c1 (stereo not drawn) [Compound 12b, 8-(3-Methoxybenzyloxy)-1,2,3,4-tetrahydro-2-methylquinoline]
Relative MTS Activity at 50 μg/mL Concentration, KYSE150 [3]: 0.845 ± 0.010 | Relative MTS Activity at 50 μg/mL Concentration, HKESC-1 [4]: 0.682 ± 0.001 | viability at 50 µg/mL (Hep3B; [8]): 72.6 ± 6.5% | Relative MTS Activity at 50 μg/mL Concentration, HKESC-4 (ESCC cell line HKESC-4): 0.716 ± 0.022

CC1CCc2cccc(OCc3ccc(F)cc3)c2N1 (stereo not drawn) [Compound 16b, 8-(4-Fluorobenzyloxy)-1,2,3,4-tetrahydro-2-methylquinoline]
viability at 50 µg/mL (Hep3B; [8]): 41.2 ± 1.7% | viability at 50 µg/mL [2]: 90.8 ± 6.3%

CC1CCc2cccc(OCc3ccc(C#N)cc3)c2N1 (stereo not drawn) [Compound 13b, 4-((1,2,3,4-Tetrahydro-2-methylquinolin-8-yloxy)methyl)benzonitrile]
Relative MTS Activity at 50 μg/mL Concentration, KYSE150 [3]: 0.470 ± 0.087 | Relative MTS Activity at 50 μg/mL Concentration, HKESC-1 [4]: 0.754 ± 0.017 | viability at 50 µg/mL (Hep3B; [8]): 84.2 ± 2.4% | Relative MTS Activity at 50 μg/mL Concentration, HKESC-4 (ESCC cell line HKESC-4): 0.424 ± 0.062

CC1CCc2c(Br)cc(Br)c(O)c2N1 (single isomer, unassigned; (+)) [(+)-2b, 5,7-Dibromo-1,2,3,4-tetrahydro-2-methylquinolin-8-ol]
cytotoxic activity relative to CDDP ([3]; cell line KYSE150, preliminary results): more than 2 fold | cytotoxic activity relative to CDDP ([4]; cell line HKESC-1, preliminary results): 1.5 fold | IC50 [5]: 4 to 10 µg/mL (≈ 12.5 to 31.2 µM) | cytotoxic activity relative to CDDP (Hep3B; cell line Hep3B, preliminary results): 1.5 fold | MTS50 (50% of MTS reduction ability by the chemical treated cell as compared with control) [6]: ~5 µg/mL | cytotoxic activity relative to CDDP (ESCC cell line HKESC-4; cell line HKESC-4, preliminary results): 1.5 fold

CC1CCc2c(Br)cc(Br)c(O)c2N1 (single isomer, unassigned; (-)) [(−)-2b, 5,7-Dibromo-1,2,3,4-tetrahydro-2-methylquinolin-8-ol]
volume growth of the KYSE150 xenograft tumors (KYSE150 xenograft tumors): effective in suppressing the volume growth | Histological examination of liver, heart, lung and kidney sections [7]: no observable damage | MTS50 (50% of MTS reduction ability by the chemical treated cell as compared with control) [6]: ~5 µg/mL

CC1CCc2cccc(OCc3ccc(OC(F)(F)F)cc3)c2N1 (stereo not drawn) [Compound 15b, 8-(4-(Trifluoromethoxy)benzyloxy)-1,2,3,4-tetrahydro-2-methylquinoline]
viability at 50 µg/mL (Hep3B; [8]): 76 ± 9% | viability at 50 µg/mL [2]: 84 ± 2.9%

[NH2][Pt]([NH2])([Cl])[Cl] [CDDP, Cisplatin, reference compound]
Relative MTS Activity at 50 μg/mL Concentration, KYSE150 [3]: 0.205 ± 0.032 | Relative MTS Activity at 50 μg/mL Concentration, HKESC-1 [4]: 0.135 ± 0.017 | effect induced by positive reference in Hep3B ([1]; 50 μg/ml): more than 95% | Relative MTS Activity at 50 μg/mL Concentration, Hep3B (Hep3B; [8]): 0.116 ± 0.031 | Relative MTS Activity at 50 μg/mL Concentration, A549 [2]: 0.216 ± 0.075 | Relative MTS Activity at 50 μg/mL Concentration, HKESC-4 (ESCC cell line HKESC-4): 0.158 ± 0.081

Cc1ccc2cccc(OCc3ccc(OC(F)(F)F)cc3)c2n1 [Compound 15a, 8-(4-(trifluoromethoxy)benzyloxy)-2-methylquinoline]
viability at 50 µg/mL (Hep3B; [8]): 77.7 ± 13% | viability at 50 µg/mL [2]: 62.9 ± 8.1%

CC1CCc2cccc(OCCN3CCCCC3)c2N1 (stereo not drawn) [Compound 8b, 8-(2-(Piperidin-1-yl)ethoxy)-1,2,3,4-tetrahydro-2-methylquinoline]
Relative activity to untreated control [1]: +

COc1ccc(COc2cccc3c2NC(C)CC3)cc1 (stereo not drawn) [Compound 11b, 8-(4-Methoxybenzyloxy)-1,2,3,4-tetrahydro-2-methylquinoline]
Relative MTS Activity at 50 μg/mL Concentration, KYSE150 [3]: 0.764 ± 0.001 | Relative MTS Activity at 50 μg/mL Concentration, HKESC-1 [4]: 0.917 ± 0.023 | viability at 50 µg/mL (Hep3B; [8]): 55.4 ± 11.4% | viability at 50 µg/mL [2]: 75.9 ± 7.9% | Relative MTS Activity at 50 μg/mL Concentration, HKESC-4 (ESCC cell line HKESC-4): 0.777 ± 0.019

Cc1ccc2cccc(OCc3cccc(-c4ccccc4)c3)c2n1 [Compound 14a, 8-(biphenyl-3-ylmethoxy)-2-methylquinoline]
viability at 50 µg/mL (Hep3B; [8]): 37 ± 21.4% | viability at 50 µg/mL [2]: 24.4 ± 0.3%

CC1CCc2cccc(OCc3cccc([N+](=O)[O-])c3)c2N1 (stereo not drawn) [Compound 9b, 8-(3-Nitrobenzyloxy)-1,2,3,4-tetrahydro-2-methylquinoline]
Relative MTS Activity at 50 μg/mL Concentration, KYSE150 [3]: 0.619 ± 0.025 | Relative MTS Activity at 50 μg/mL Concentration, HKESC-1 [4]: 0.453 ± 0.012 | viability at 50 µg/mL (Hep3B; [8]): 68.8 ± 2.7% | viability at 50 µg/mL [2]: 70.6 ± 18.4% | Relative MTS Activity at 50 μg/mL Concentration, HKESC-4 (ESCC cell line HKESC-4): 0.698 ± 0.096

CC1CCc2cccc(OCc3cccc(-c4ccccc4)c3)c2N1 (stereo not drawn) [Compound 14b, 8-(Biphenyl-3-ylmethoxy)-2-methyl-1,2,3,4-tetrahydroquinoline]
viability at 50 µg/mL (Hep3B; [8]): 51 ± 6.8% | viability at 50 µg/mL [2]: 124 ± 6.6%

CC1CCc2cccc(OCc3ccc(Cl)cc3)c2N1 (stereo not drawn) [Compound 18b, 8-(4-Chlorobenzyloxy)-1,2,3,4-tetrahydro-2-methylquinoline]
viability at 50 µg/mL (Hep3B; [8]): 60.9 ± 4.2% | viability at 50 µg/mL [2]: 109 ± 3.9%

CC1CCc2cccc(OCc3ccc([N+](=O)[O-])cc3)c2N1 (stereo not drawn) [Compound 10b, 8-(4-Nitrobenzyloxy)-1,2,3,4-tetrahydro-2-methylquinoline]
Relative MTS Activity at 50 μg/mL Concentration, KYSE150 [3]: 1.097 ± 0.036 | Relative MTS Activity at 50 μg/mL Concentration, HKESC-1 [4]: 1.337 ± 0.145 | viability at 50 µg/mL (Hep3B; [8]): 126 ± 3% | viability at 50 µg/mL [2]: 166 ± 17.3% | Relative MTS Activity at 50 μg/mL Concentration, HKESC-4 (ESCC cell line HKESC-4): 1.056 ± 0.050

CC(=O)Oc1cccc2c1N(C(C)=O)C(C)CC2 (stereo not drawn) [Compound 26b, 1-Acetyl-2-methyl-1,2,3,4-tetrahydroquinolin-8-yl acetate]
Relative activity to untreated control [1]: +

COc1cccc(COc2cccc3ccc(C)nc23)c1 [Compound 12a, 8-(3-methoxybenzyloxy)-2-methylquinoline]
Relative MTS Activity at 50 μg/mL Concentration, KYSE150 [3]: 0.648 ± 0.013 | Relative MTS Activity at 50 μg/mL Concentration, HKESC-1 [4]: 0.535 ± 0.032 | viability at 50 µg/mL (Hep3B; [8]): 20.9 ± 3% | Relative MTS Activity at 50 μg/mL Concentration, HKESC-4 (ESCC cell line HKESC-4): 0.794 ± 0.005
